Laboratory results as given in patent US6887896B1, “7-[(7-Alkoxy)-chrom-3-en-6-yl]-heptatrienoic acid and 7-[(3-alkoxy)-5,6-dihydronaphthalen-2-yl]-heptatrienoic acid derivatives having serum glucose reducing activity” (Allergan, Inc., priority 2003, dated 2005).

Molecular target: T1, RARγ (Homo sapiens, UniProt P13631)
T1 sequence (P13631 1-454): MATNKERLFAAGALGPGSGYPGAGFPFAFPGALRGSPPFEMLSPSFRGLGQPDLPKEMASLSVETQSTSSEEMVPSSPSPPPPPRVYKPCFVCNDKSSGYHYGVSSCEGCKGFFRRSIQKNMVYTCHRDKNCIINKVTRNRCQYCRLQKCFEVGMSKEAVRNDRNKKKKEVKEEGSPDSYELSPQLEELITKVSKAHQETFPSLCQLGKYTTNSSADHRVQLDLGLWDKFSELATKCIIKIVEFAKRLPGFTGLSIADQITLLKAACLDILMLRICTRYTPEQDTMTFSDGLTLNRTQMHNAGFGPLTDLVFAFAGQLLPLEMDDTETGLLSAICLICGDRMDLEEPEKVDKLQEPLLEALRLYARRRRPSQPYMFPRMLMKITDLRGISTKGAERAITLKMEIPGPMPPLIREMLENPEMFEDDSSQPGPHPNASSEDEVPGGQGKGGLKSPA
Assay: ligand binding assay, RARγ
Conditions: Table 9 (Formula F); read-out: RAR γ Kd
Excerpt: Specifically, one such assay is a chimeric receptor transactivation assay which tests for agonist-like activity in the R RAPE and RAR7 receptor subtypes, and which is based on work published by Feigner, P. L. and Holm, M (1989) Focus, 112 is described in detail in U.S. Pat. No. 5,455,265. The specification of U.S. Pat. No. 5,455,265 is hereby expressly incorporated by reference. A holoreceptor transactivation assay and a ligand binding assay which measure the antagonist/agonist like activity of the compounds of the invention, or their ability to bind to the several retinoid receptor subtypes, respectively, are described in published PCT Application No. WO WO93/11755 (particularly on pages 30-33 and 37-41) published on Jun. 24, 1993, the specification of which is also incorporated herein by reference. A detailed experimental procedure for holoreceptor transactivations has been described by Heyman et al. Cell 68, 397-406, (1992); Allegretto et al. J. Biol. Chem. 268, 26625-26633, and Mangelsdorf et al. The Retinoids: Biology, Chemistry and Medicine, pp 319-349, Raven Press Ltd., New York, which are expressly incorporated herein by reference. The results obtained in this assay are expressed in EC50 numbers, as they are also in the chimeric receptor transactivation assay. The results of the ligand binding assay are expressed in Ki numbers. (See Cheng et al. Biochemical Pharmacology Vol. 22 pp 3099-3108, expressly incorporated herein by reference.)
Generally speaking, in the tables disclosing the results of transactivation and binding assays the numbers in parentheses indicate efficacy as a percentage compared to the standard compound, (2E,4E,1′S,2′S)-3-methyl-5-[2′-methyl-2′-(5,5,8,8-tetramethyl-5,6,7,8-tetrahydro-naphthalen-2-yl)cyclopropyl]-penta-2,4-dienoic acid and the other numbers indicate the measured EC50 and K; in nanomolar concentration.

Kd	Structure (SMILES)
1 µM	CCOc1c(\C(C)=C(F)/C=C/C(C)=C/C(=O)O)cc2c(c1Br)C(C)(C)CC=C2C(C)C [Compound A-169, (2E,4E,6E)-7-(4-Bromo-3-ethoxy-8-isopropyl-5,5-dimethyl-5,6-dihydro-naphthalen-2-yl)-6-fluoro-3-methyl-octa-2.4,6-trienoic acid]
1.2 µM	CCOc1c(\C(C)=C(F)/C=C/C(C)=C/C(=O)O)cc2c(c1Cl)C(C)(C)CC=C2C(C)C [Compound A-177, (2E,4E,6E)-7-(4-Chloro-3-ethoxy-8-isopropyl-5,5-dimethyl-5,6-dihydronaphthalen-2-yl)6-fluoro-3-methyl-octa-2,4,6-trienoic acid]

Same assay, conditions: read-out: RAR Bind. Ki γ

Ki	Structure (SMILES)
1.2 µM	CCOc1cc2c(cc1\C(C)=C(F)/C=C/C(C)=C/C(=O)O)C(C)=CCC2(C)C
> 10 µM	CCC1=CC(C)(C)Oc2cc(OC)c(\C(C)=C/C=C/C(C)=C/C(=O)O)cc21 [Compound 42, 7-(4-Ethyl-7-methoxy-2,2-dimethyl-2H-chromen-6-yl)-3-methyl-octa-2E,4E,6Z-trienoic acid]
3.5 µM	CC/C(=C/C=C/C(C)=C/C(=O)O)c1cc2c(cc1OC)OC(C)(C)C=C2C(C)C [Compound 44, 7-(4-Isopropyl-7-methoxy-22-dimethyl-2H-chromen-6-yl)-3-methyl-nona-2E,4E,6Z-trienoic acid]
3.4 µM	CCOc1cc2c(cc1\C(=C/C=C/C(C)=C/C(=O)O)CC)C(C)=CC(C)(C)O2 [Compound 46, 7-(7-Ethoxy-2,2,4-trimethyl-2H-chromen-6-yl)-3-methyl-nona-2E,4E,6Z-trienoic acid]
> 10 µM	COc1c(\C(C)=C/C=C/C(C)=C/C(=O)O)cc2c(c1Cl)OC(C)(C)C=C2C(C)C [Compound 49, 7-(8-Chloro-4-isopropyl-7-methoxy-2,2-dimethyl-2H-chromen-6-y)-3-methyl-octa-2E,4E,6Z-trienoic acid]
4.9 µM	CCOc1c(\C(=C/C=C/C(C)=C/C(=O)O)CC)cc2c(c1Cl)OC(C)(C)C=C2C(C)C [Compound 51]
> 10 µM	CCC1=CC(C)(C)Oc2cc(OC)c(\C(C)=C(F)/C=C/C(C)=C/C(=O)O)cc21 [Compound 120, 7-(4Ethyl-7-methoxy-2,2-dimethyl-2H-chromen-6-yl)-6-fluoro-3-methyl-octa-2E,4E,6E-trienoic acid]
8.8 µM	COc1cc2c(cc1\C(C)=C(F)/C=C/C(C)=C/C(=O)O)C(C(C)C)=CC(C)(C)O2 [Compound 121, (2E,4E,6E)-6-Fluoro-7-(4-isopropyl-7-methoxy-2,2-dimethyl-2H-chromen-6-yl)-3-methyl-octa-2,4,6-trienoic acid]
3.9 µM	COc1cc2c(cc1\C(C)=C(F)/C=C/C(C)=C/C(=O)O)C(C(C)(C)C)=CC(C)(C)O2 [Compound 122, 7-(4-tert-Butyl-7-methoxy-2,2-dimethyl-2H-chromen-6-yl)-6-fluoro-3-methyl-octa-2E,4E,6E-trienoic acid]
> 10 µM	CCOc1cc2c(cc1\C(C)=C(F)/C=C/C(C)=C/C(=O)O)C(CC)=CC(C)(C)O2 [Compound 123, 7-(7-Ethoxy-4-ethyl-2,2-dimethyl-2H-chromen-6-yl)-6-fluoro-3-methyl-octa-2E,4E,6E-trienoic acid]
3.3 µM	CC/C(=C(F)/C=C/C(C)=C/C(=O)O)c1cc2c(cc1OC)OC(C)(C)C=C2C(C)(C)C [Compound 131, 7-(4-tert-Butyl-7-methoxy-2,2-dimethyl-2H-chromen-6-yl)-6-fluoro-3-methyl-nona-2E,4E,6E-trienoic acid]
2.4 µM	CCOc1cc2c(cc1\C(CC)=C(F)/C=C/C(C)=C/C(=O)O)C(C)=CC(C)(C)O2 [Compound 132, 7-(7-Ethoxy-2,2,4-trimethyl-2H-chromen-6-yl)-6-fluoro-3-methyl-nona-2E,4E,6E-trienoic acid]
5.3 µM	COc1c(\C(C)=C(F)/C=C/C(C)=C/C(=O)O)cc2c(c1Cl)OC(C)(C)C=C2C(C)C [Compound 170, 7-(8-Chloro-4-isopropyl-7-methoxy-2,2-dimethyl-2H-chromen-6-yl)-6-fluoro-3-methyl-octa-2E,4E,6E-trienoic acid]
2.4 µM	CCOc1c(\C(CC)=C(F)/C=C/C(C)=C/C(=O)O)cc2c(c1Cl)OC(C)(C)C=C2C(C)C [Compound 173]
3.4 µM	CC(/C=C/C(F)=C(/C)c1cc2c(c(Cl)c1OC(C)C)OC(C)(C)C=C2C(C)C)=C\C(=O)O [Compound 174]
3.8 µM	CCOc1cc2c(cc1\C(=C/C=C/C(C)=C/C(=O)O)CC)C(C)=CCC2(C)C [Compound A-16, 7-(3-Ethoxy-5,5,8-trimethyl-5,6-dihydronaphthalen-2-yl)-3-methyl-nona-2E,4E,6Z-trienoic acid]
1.9 µM	CCOc1cc2c(cc1\C(C)=C/C=C/C(C)=C/C(=O)O)C(C(C)(C)C)=CCC2(C)C [Compound A-17, 7-(8-tert-Butyl-3-ethyloxy-5,5-dimethyl-5,6-dihydronaphthalen-2-yl)-3-methyl-octa-2E,4E,6Z-trienoic acid]
0.537 µM	CCOc1cc2c(cc1\C(=C/C=C/C(C)=C/C(=O)O)CC)C(C(C)(C)C)=CCC2(C)C [Compound A-18, 7-(8-tert-butyl-3-ethyoxy-5,5-dimethyl-5,6-dihydronaphthalen-2-yl)-3-methyl-nona-2E,4E,6Z-trienoic acid]
6.4 µM	CCCOc1cc2c(cc1\C(C)=C(F)/C=C/C(C)=C/C(=O)O)C(C(C)C)=CCC2(C)C [Compound A-80]
5.6 µM	CC(/C=C/C(F)=C(/C)c1cc2c(cc1OCC1CC1)C(C)(C)CC=C2C(C)C)=C\C(=O)O [Compound A-81, (2E,4E,6E)-6-Fluoro-3-(4-dimethyl-6-(cyclopropyl)methoxy-1-isopropyl-3,4-dihydronaphthalen-7-yl)-3-methyl-2,4.6-octa-trienoic acid]
1.4 µM	CCOc1cc2c(cc1\C(C)=C(F)/C=C/C(C)=C/C(=O)O)C(C(C)(C)C)=CCC2(C)C [Compound A-82, (2E,4E,6E)-6-Fluoro-3-(4,4-dimethyl-6-ethoxy-1-tert-butyl-3,4 dihydronaphthalen-7-yl)-3-methyl-2,4,6-octa-trienoic acid]
0.698 µM	CCOc1cc2c(cc1\C(CC)=C(F)/C=C/C(C)=C/C(=O)O)C(C(C)(C)C)=CCC2(C)C [Compound A-83, (2E,4E,6E)-7-(8-tert-Butyl-3-ethoxy-5,5-dimethyl-5,6-dihydronaphthalen-2-yl)-6-fluoro-3-methyl-nona-2,4,6-trienoic acid]
0.274 µM	CCCOc1cc2c(cc1\C(C)=C(F)/C=C/C(C)=C/C(=O)O)C(C(C)(C)C)=CCC2(C)C [Compound A-84, (2E,4E,6E)-6-Fluoro-3-(4,$dimethyl-6-n-propoxy-1-tert-butyl-3,4-dihydronaphthalen-7-yl)-3-methyl-2,4,6-octatrienoic acid]

Tested on: ob/ob mice
Assay: serum glucose, triglycerides and T4 in diabetic mice, oral gavage in corn oil daily for seven days
Assay type: in vivo
Conditions: 50 mg/kg, corn oil vehicle (Table 7)

T4 Day 7	Structure (SMILES)	Glucose Day 3, 3 h	Glucose Day 6, 3 h	Triglycerides Day 3, 3 h
4.2 µg/dL	CCOc1cc2c(cc1\C(=C/C=C/C(C)=C/C(=O)O)CC)C(C)=CCC2(C)C [Compound A-16, 7-(3-Ethoxy-5,5,8-trimethyl-5,6-dihydronaphthalen-2-yl)-3-methyl-nona-2E,4E,6Z-trienoic acid]	297 mg/dL	267 mg/dL	121 mg/dL

Same assay, conditions: 50 mg/kg, corn oil vehicle (Table 7); day 0 (pre-treatment)

Structure (SMILES)	Glucose Day 0	Triglycerides Day 0
CCOc1cc2c(cc1\C(=C/C=C/C(C)=C/C(=O)O)CC)C(C)=CCC2(C)C [Compound A-16, 7-(3-Ethoxy-5,5,8-trimethyl-5,6-dihydronaphthalen-2-yl)-3-methyl-nona-2E,4E,6Z-trienoic acid]	443 mg/dL	160 mg/dL
